From patent US20260337245A1, “POLYPEPTIDE OR ANALOG THEREOF AND USE THEREOF” (Shenzhen Bay Laboratory, priority 2024, published 2026)
Starred links: 1 amine or outer side, 2 acyl side, 3 side chain; linkers in the order of their positions; H or OH if unused. Positions of bridges follow the written chain, without caps; N, C: chain ends. Non-standard residues stand in square brackets, D forms with d. Residues, ends and D or L forms follow the SMILES beside them. X1 = O=C(O)CCCCCCCCCCCCCCCCCCC(=O)N[C@@H](CCCCNC(=O)COCCOCCNC(=O)COCCOCCNC(=O)CCC(=O)N(CCNC(=O)C[*:1])CCNC(=O)C[*:2])C(=O)O; NMeR = CN[C@@H](CCCNC(=N)N)C(=O)O; Hyp = O=C(O)[C@@H]1C[C@@H](O)CN1; hArg = N=C(N)NCCCC[C@H](N)C(=O)O; αMeF = C[C@](N)(Cc1ccccc1)C(=O)O; αMeL = CC(C)C[C@](C)(N)C(=O)O; αMeK = C[C@](N)(CCCCN)C(=O)O; Orn = NCCC[C@H](N)C(=O)O; Aib = CC(C)(N)C(=O)O

How the values were obtained:
[1] = molecular target: T1, AMY3R (Homo sapiens, UniProt P30988); assay: HTRF cAMP assay, AMY3R; format: cell-based; conditions: HEK293/pGM-CREB-L-Luc/AMY3R pool, read-out: IC50 of receptor AMY3R
T1 construct: expressed in transfected cells
T1 sequence (P30988 25-474): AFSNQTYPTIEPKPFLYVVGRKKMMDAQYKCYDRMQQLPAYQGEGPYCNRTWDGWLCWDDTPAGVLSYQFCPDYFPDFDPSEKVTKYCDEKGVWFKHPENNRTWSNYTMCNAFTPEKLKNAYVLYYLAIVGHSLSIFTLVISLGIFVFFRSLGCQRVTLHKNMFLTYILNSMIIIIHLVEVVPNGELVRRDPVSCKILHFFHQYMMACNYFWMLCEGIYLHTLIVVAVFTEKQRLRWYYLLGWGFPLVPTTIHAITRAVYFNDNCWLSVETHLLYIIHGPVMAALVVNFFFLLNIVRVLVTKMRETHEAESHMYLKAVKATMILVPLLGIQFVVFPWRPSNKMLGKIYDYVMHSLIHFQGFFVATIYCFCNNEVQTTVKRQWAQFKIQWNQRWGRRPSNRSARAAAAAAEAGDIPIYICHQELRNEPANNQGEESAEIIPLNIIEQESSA
T1 sequence (O60896 24-148 partner): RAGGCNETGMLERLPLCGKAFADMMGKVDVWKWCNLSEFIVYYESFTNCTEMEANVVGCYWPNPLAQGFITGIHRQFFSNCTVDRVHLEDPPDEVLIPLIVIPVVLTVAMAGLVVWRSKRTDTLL
From the text: (§1) 2. The polypeptide derivatives prepared in Example 1 and Example 2 of the present disclosure can bind to the target AMYR and CTR receptors on the cell membrane, activate the receptors and release cAMP. Therefore, the activity of the analyte can be determined by using an HTRF (homogeneous time-resolved fluorescence) method and using a cAMP detection kit. The specific steps were as follows:
(§2) A stable transfected cell line of HEK293/pGM-CREB-L-Luc/AMY3R pool and HEK293/pGM-CREB-L-Luc/CTR pool was constructed. The polypeptide derivatives (i.e., AMY-001 to AMY-041) prepared in Examples 1 and 2 were subjected to 5-fold serial dilution from a maximum of 1000 nM to prepare a dilution series containing 8 to 11 concentration gradients. Cagrilintide and sCT were selected as positive controls for testing, and a dilution series was prepared according to the same method for testing. The test cell lines were selected and treated with cAMP-specific trypsin for digestion, and then suspended with 3 mL of serum-free DMEM medium by pipetting, and the cells were counted. 5 μL of IBMX (prepared with serum-free DMEM medium, 0.5 mM) and test cells (5 μL/7500 cells/well) were sequentially added to a 384-well plate, incubated under the conditions of 37° C., 5% CO2 for 30 minutes, then added with cAMP-d2 (5 μL, 1×) and Anti-cAMP-Cryptate (5 μL, 1×) and placed at room temperature for 1 hour. A HTRF value was determined by a chemiluminescence microplate reader, and the results were recorded. An activation curve was plotted using GraphPad Prism software to calculate an IC50 value of each polypeptide derivative. […] The IC50 values of some polypeptides were exemplarily shown in this example, see Table 3, FIG. 2 and FIG. 3 for details.

[2] = molecular target: T2, CTR (Homo sapiens, UniProt P30988); assay: HTRF cAMP assay, CTR; format: cell-based; conditions: HEK293/pGM-CREB-L-Luc/CTR pool, read-out: IC50 of receptor CTR
T2 construct: expressed in transfected cells
T2 sequence (P30988 25-474): T1 sequence (P30988 25-474)
From the text: as §1, §2

| EC50 [1] | EC50 [2] | Compound |
| --- | --- | --- |
| 0.0414 nM | 0.0894 nM | CC(=O)N[C@@H](C)C(=O)N[C@@H](CO)C(=O)N[C@@H](Cc1c[nH]cn1)C(=O)N[C@@H](CC(C)C)C(=O)N[C@@H](CO)C(=O)N[C@H](C(=O)N[C@@H](C)C(=O)N[C@H]1CSCC(=O)NCCN(C(=O)CCC(=O)NCCOCCOCC(=O)NCCOCCOCC(=O)NCCCC[C@H](NC(=O)CCCCCCCCCCCCCCCCCCC(=O)O)C(=O)O)CCNC(=O)CSC[C@@H](C(=O)N[C@@H](CC(C)C)C(=O)N[C@@H](Cc2c[nH]cn2)C(=O)N[C@@H](CCCN)C(=O)N[C@@H](CC(C)C)C(=O)NC(C)(C)C(=O)N[C@@H](CC(=O)O)C(=O)N[C@@](C)(Cc2ccccc2)C(=O)N2CCC[C@H]2C(=O)N[C@@H](CCCNC(=N)N)C(=O)N[C@H](C(=O)N[C@@H](CC(=O)O)C(=O)N[C@H](C(=O)NCC(=O)N[C@@H](C)C(=O)NCC(=O)N[C@@H](CO)C(=O)N2C[C@H](O)C[C@H]2C(N)=O)C(C)C)[C@@H](C)O)NC(=O)[C@H](C)NC(=O)[C@H](CO)NC(=O)[C@H](CC(C)C)NC(=O)[C@H](CCCNC(=N)N)NC(=O)CNC(=O)[C@H](CC(C)C)NC1=O)[C@@H](C)O [AMY-009, Ac-ASHLSTACLGRLSACLH-Orn-L-Aib-D-(αMeF)-PRTDVGAGS-Hyp-NH2] (Ac-ASHLSTACLGRLSACLH[Orn]L[Aib]D[αMeF]PRTDVGAGS[Hyp]-NH2; linker 8-15 via X1) |
| 0.0523 nM | 0.0415 nM | CC(=O)N[C@@H](C)C(=O)N[C@@H](CO)C(=O)N[C@@H](Cc1c[nH]cn1)C(=O)N[C@@](C)(CC(C)C)C(=O)N[C@@H](CO)C(=O)N[C@H](C(=O)N[C@@H](C)C(=O)N[C@H]1CSCC(=O)NCCN(C(=O)CCC(=O)NCCOCCOCC(=O)NCCOCCOCC(=O)NCCCC[C@H](NC(=O)CCCCCCCCCCCCCCCCCCC(=O)O)C(=O)O)CCNC(=O)CSC[C@@H](C(=O)N[C@@H](CC(C)C)C(=O)N[C@@H](Cc2c[nH]cn2)C(=O)N[C@@H](CCCCN)C(=O)N[C@@H](CC(C)C)C(=O)NC(C)(C)C(=O)N[C@@H](CC(=O)O)C(=O)N[C@@](C)(Cc2ccccc2)C(=O)N2CCC[C@H]2C(=O)N(C)[C@@H](CCCNC(=N)N)C(=O)N[C@H](C(=O)N[C@@H](CC(=O)O)C(=O)N[C@H](C(=O)NCC(=O)N[C@@H](C)C(=O)NCC(=O)N[C@@H](CO)C(=O)N2CCC[C@H]2C(N)=O)C(C)C)[C@@H](C)O)NC(=O)[C@H](C)NC(=O)[C@H](CO)NC(=O)[C@H](CC(C)C)NC(=O)[C@H](CCCNC(=N)N)NC(=O)CNC(=O)[C@H](CC(C)C)NC1=O)[C@@H](C)O [AMY-010, Ac-ASH-(aMeK)-STACLGRLSACLHKL-Aib-D-(αMeF)-P-(N-Me-R)-TDVGAGSP-NH2] (Ac-ASH[αMeL]STACLGRLSACLHKL[Aib]D[αMeF]P[NMeR]TDVGAGSP-NH2; linker 8-15 via X1) |
| 0.0133 nM | 0.0357 nM | CC(=O)N[C@@H](C)C(=O)N[C@@H](CO)C(=O)N[C@@H](Cc1c[nH]cn1)C(=O)N[C@@H](CC(C)C)C(=O)N[C@@H](CO)C(=O)N[C@H](C(=O)N[C@@H](C)C(=O)N[C@H]1CSCC(=O)NCCN(C(=O)CCC(=O)NCCOCCOCC(=O)NCCOCCOCC(=O)NCCCC[C@H](NC(=O)CCCCCCCCCCCCCCCCCCC(=O)O)C(=O)O)CCNC(=O)CSC[C@@H](C(=O)N[C@@H](CC(C)C)C(=O)N[C@@H](Cc2c[nH]cn2)C(=O)N[C@@](C)(CCCCN)C(=O)N[C@@H](CC(C)C)C(=O)NC(C)(C)C(=O)N[C@@H](CC(=O)O)C(=O)N[C@@H](Cc2ccc(O)cc2)C(=O)N2CCC[C@H]2C(=O)N(C)[C@@H](CCCNC(=N)N)C(=O)N[C@H](C(=O)N[C@@H](CC(=O)O)C(=O)N[C@H](C(=O)NCC(=O)N[C@@H](C)C(=O)NCC(=O)N[C@@H](CO)C(=O)N2CCC[C@H]2C(N)=O)C(C)C)[C@@H](C)O)NC(=O)[C@H](C)NC(=O)[C@H](CO)NC(=O)[C@H](CC(C)C)NC(=O)[C@H](CCCCNC(=N)N)NC(=O)CNC(=O)[C@H](CC(C)C)NC1=O)[C@@H](C)O [AMY-012, Ac-ASHLSTACLG-homoR-LSACLH-(αMeK)-L-Aib-DYP-(N-Me-R)-TDVGAGSP-NH2] (Ac-ASHLSTACLG[hArg]LSACLH[αMeK]L[Aib]DYP[NMeR]TDVGAGSP-NH2; linker 8-15 via X1) |
| 0.0044 nM | 0.0012 nM | CC(=O)N[C@@H](C)C(=O)N[C@@H](CO)C(=O)N[C@@H](Cc1c[nH]cn1)C(=O)N[C@@H](CC(C)C)C(=O)N[C@@H](CO)C(=O)N[C@H](C(=O)N[C@@H](C)C(=O)N[C@H]1CCCCNC(=O)CN(C(=O)CCCNC(=O)COCCOCCNC(=O)COCCOCCNC(=O)CC[C@H](NC(=O)CCCCCCCCCCCCCCCCCCC(=O)O)C(=O)O)CC(=O)NCCCC[C@@H](C(=O)N[C@@H](CC(C)C)C(=O)N[C@@H](Cc2c[nH]cn2)C(=O)N[C@@](C)(CCCCN)C(=O)N[C@@H](CC(C)C)C(=O)NC(C)(C)C(=O)N[C@@H](CC(=O)O)C(=O)N[C@@H](Cc2ccc(O)cc2)C(=O)N2CCC[C@H]2C(=O)N[C@@H](CCC(N)=O)C(=O)N[C@H](C(=O)N[C@@H](CC(=O)O)C(=O)N[C@H](C(=O)NCC(=O)N[C@@H](C)C(=O)NCC(=O)N[C@@H](CO)C(=O)N2C[C@H](O)C[C@H]2C(N)=O)C(C)C)[C@@H](C)O)NC(=O)[C@H](C)NC(=O)[C@H](CO)NC(=O)[C@H](CC(C)C)NC(=O)[C@H](CCCNC(=N)N)NC(=O)CNC(=O)[C@H](CC(C)C)NC1=O)[C@@H](C)O [AMY-021, Ac-ASHLSTAKLGRLSAKLH-(αMeK)-L-Aib-DYPQTDVGAGS-Hyp-NH2] |
| 0.0679 nM | 0.102 nM | CC(=O)N[C@@H](C)C(=O)N[C@@H](CO)C(=O)N[C@@H](Cc1c[nH]cn1)C(=O)N[C@@H](CC(C)C)C(=O)N[C@@H](CO)C(=O)N[C@H](C(=O)N[C@@H](C)C(=O)N[C@H](C(=O)N[C@@H](CC(C)C)C(=O)NCC(=O)N[C@H]1CCCCNC(=O)CN(C(=O)COCCOCCNC(=O)CC[C@H](NC(=O)CCCCCCCCCCCCCCCCCCC(=O)O)C(=O)O)CC(=O)NCCCC[C@@H](C(=O)N[C@@H](CC(C)C)C(=O)NC(C)(C)C(=O)N[C@@H](CC(=O)O)C(=O)N[C@@H](Cc2ccc(O)cc2)C(=O)N2CCC[C@H]2C(=O)N[C@@H](CCC(N)=O)C(=O)N[C@H](C(=O)N[C@@H](CC(=O)O)C(=O)N[C@H](C(=O)NCC(=O)N[C@@H](C)C(=O)NCC(=O)N[C@@H](CO)C(=O)N2C[C@H](O)C[C@H]2C(N)=O)C(C)C)[C@@H](C)O)NC(=O)[C@H](Cc2c[nH]cn2)NC(=O)[C@H](CC(C)C)NC(=O)[C@H](CCC(=O)O)NC(=O)[C@H](C)NC(=O)[C@H](CO)NC(=O)[C@H](CC(C)C)NC1=O)C(C)C)[C@@H](C)O [AMY-022, Ac-ASHLSTAVLGKLSAELHKL-Aib-DYPQTDVGAGS-Hyp-NH2] |
